Assay results: US8063048B2, “Acetylenyl-pyrazolo-pyrimidine derivatives” (Hoffmann-La Roche Inc., priority 2005, dated 2011)

| Structure (SMILES) | melting point [°C] |
| --- | --- |
| OCc1cccc(C#Cc2cnn3c(C(F)(F)F)cc(-c4ccc(C(F)(F)F)cc4)nc23)c1 [Example 204, {3-[7-Trifluoromethyl-5-(4-trifluoromethyl-phenyl)-pyrazolo[1,5-a]pyrimidin-3-ylethynyl]-phenyl}-methanol] | 177 |
| NS(=O)(=O)c1cccc(C#Cc2cnn3c(C(F)(F)F)cc(-c4cccc(C(F)(F)F)c4)nc23)c1 [Example 118, 3-[7-Trifluoromethyl-5-(3-trifluoromethyl-phenyl)-pyrazolo[1,5-a]pyrimidin-3-ylethynyl]-benzenesulfonamide] | 193 |
| CCOc1cccc(-c2cc(C(F)F)n3ncc(C#Cc4ccc(S(N)(=O)=O)cc4)c3n2)c1 [Example 187, 4-[7-Difluoromethyl-5-(3-ethoxy-phenyl)-pyrazolo[1,5-a]pyrimidin-3-ylethynyl]-benzenesulfonamide] | 245 |
| Cc1cc(-c2cc(C(F)(F)F)n3ncc(C#Cc4cnc(N)nc4)c3n2)ccc1C(F)(F)F [Example 290, 5-[5-(3-Methyl-4-trifluoromethyl-phenyl)-7-trifluoromethyl-pyrazolo[1,5-a]pyrimidin-3-ylethynyl]-pyrimidin-2-ylamine] | 240 |
| O=S(=O)(NC(CO)CO)c1ccc(C#Cc2cnn3c(C(F)F)cc(-c4cccc(C(F)(F)F)c4)nc23)s1 [Example 265, 5-[7-Difluoromethyl-5-(3-trifluoromethyl-phenyl)-pyrazolo[1,5-a]pyrimidin-3-ylethynyl]-thiophene-2-sulfonic acid (2-hydroxy-1-hydroxymethyl-ethyl)-amide] | 153 |
| O=S(=O)(c1ccc(C#Cc2cnn3c(C(F)(F)F)cc(-c4cccc(C(F)(F)F)c4)nc23)s1)N1CCNCC1 [Example 261, 3-[5-(piperazine-1-sulfonyl)-thiophen-2-ylethynyl]-7-trifluoromethyl-5-(3-trifluoromethyl-phenyl)-pyrazolo[1,5-a]pyrimidine] | 160 |
| Nc1ccc(C#Cc2cnc3c(C(F)(F)F)cc(-c4ccc(C(F)(F)F)cc4)cn23)cn1 [Example 191, 5-[8-Trifluoromethyl-6-(4-trifluoromethyl-phenyl)-imidazo[1,2-a]pyridin-3-ylethynyl]-pyridin-2-ylamine] | 260 to 262 |
| CN(C)CCNS(=O)(=O)c1cccc(C#Cc2cnn3c(C(F)F)cc(-c4ccc(C(F)(F)F)cc4)nc23)c1 [Example 148, 3-[7-Difluoromethyl-5-(4-trifluoromethyl-phenyl)-pyrazolo[1,5-a]pyrimidin-3-ylethynyl]-N-(2-dimethylamino-ethyl)-benzenesulfonamide] | 160 to 162 |
| FC(F)(F)c1ccc(-c2cc(C(F)(F)F)n3ncc(C#Cc4ccccc4)c3n2)cc1 [Example 62, 3-Phenylethynyl-7-trifluoromethyl-5-(4-trifluoromethyl-phenyl)-pyrazolo[1,5-a]pyrimidine] | 144 to 145 |
| Nc1ncc(C#Cc2cnn3c(C(F)(F)F)cc(-c4ccc(C(F)(F)F)cc4)nc23)cn1 [Example 205, 5-[7-Trifluoromethyl-5-(4-trifluoromethyl-phenyl)-pyrazolo[1,5-a]pyrimidin-3-ylethynyl]-pyrimidin-2-ylamine] | 255 to 256 |
| O=S(=O)(NCc1ccncc1)c1ccc(C#Cc2cnn3c(C(F)(F)F)cc(-c4ccc(C(F)(F)F)cc4)nc23)s1 [Example 272, 5-[7-Trifluoromethyl-5-(4-trifluoromethyl-phenyl)-pyrazolo[1,5-a]pyrimidin-3-ylethynyl]-thiophene-2-sulfonic acid (pyridin-4-ylmethyl)-amide] | 170 |
| COCCNS(=O)(=O)c1cccc(C#Cc2cnn3c(C(F)(F)F)cc(-c4ccc(C(F)(F)F)cc4)nc23)c1 [Example 131, N-(2-Methoxy-ethyl)-3-[7-trifluoromethyl-5-(4-trifluoromethyl-phenyl)-pyrazolo[1,5-a]pyrimidin-3-ylethynyl]-benzenesulfonamide] | 186 to 188 |
| NS(=O)(=O)c1ccc(C#Cc2cnn3c(C(F)(F)F)cc(-c4ccc(C(F)(F)F)cc4)nc23)cc1 [Example 36, 4-[7-Trifluoromethyl-5-(4-trifluoromethyl-phenyl)-pyrazolo[1,5-a]pyrimidin-3-ylethynyl]-benzenesulfonamide] | 266 to 267 |
| Cc1cc(-c2ccc(C(F)(F)F)cc2)nc2c(C#Cc3ccc(S(N)(=O)=O)cc3)cnn12 [Example 150, 4-[7-Methyl-5-(4-trifluoromethyl-phenyl)-pyrazolo[1,5-a]pyrimidin-3-ylethynyl]-benzenesulfonamide] | 282 to 284 |
| NCCNS(=O)(=O)c1ccc(C#Cc2cnn3c(C(F)(F)F)cc(-c4ccc(C(F)(F)F)cc4)nc23)s1 [Example 263, 5-[7-Trifluoromethyl-5-(4-trifluoromethyl-phenyl)-pyrazolo[1,5-a]pyrimidin-3-ylethynyl]-thiophene-2-sulfonic acid (2-amino-ethyl)-amide] | 161 |
| CC(O)c1ccc(C#Cc2cnn3c(C(F)(F)F)cc(-c4ccc(C(F)(F)F)cc4)nc23)cc1 (stereo not shown) [Example 52, 1-{4-[7-Trifluoromethyl-5-(4-trifluoromethyl-phenyl)-pyrazolo[1,5-a]pyrimidin-3-ylethynyl]-phenyl}-ethanol] | 175 to 178 |

| Structure (SMILES) | melting point [°C] |
| --- | --- |
| Nc1ncc(C#Cc2cnc3c(C(F)(F)F)cc(-c4ccc(C(F)(F)F)cc4)nn23)cn1 [Example 243, 5-[8-Trifluoromethyl-6-(4-trifluoromethyl-phenyl)-imidazo[1,2-b]pyridazin-3-ylethynyl]-pyrimidin-2-ylamine] | 220 to 221 |
| NS(=O)(=O)c1ccc(C#Cc2cnn3c(C(F)F)cc(-c4cccc(C(F)(F)F)c4)nc23)s1 [Example 160, 5-[7-Difluoromethyl-5-(3-trifluoromethyl-phenyl)-pyrazolo[1,5-a]pyrimidin-3-ylethynyl]-thiophene-2-sulfonic acid amide] | 225 |
| O=S(=O)(O)c1cnc(C#Cc2cnn3c(C(F)(F)F)cc(-c4ccc(C(F)(F)F)cc4)nc23)s1 [Example 20, 2-[7-Trifluoromethyl-5-(4-trifluoromethyl-phenyl)-pyrazolo[1,5-a]pyrimidin-3-ylethynyl]-thiazole-5-sulfonic acid] | > 295 |
| Nc1ccc(C#Cc2cnc3c(F)cc(-c4ccc(Cl)cc4)cn23)cn1 [Example 241, 5-[6-(4-Chloro-phenyl)-8-fluoro-imidazo[1,2-a]pyridin-3-ylethynyl]-pyridin-2-ylamine] | 259 |
| NC(=O)c1ccc(C#Cc2cnn3c(C(F)(F)F)cc(-c4ccc(C(F)(F)F)cc4)nc23)cc1 [Example 197, 4-[7-Trifluoromethyl-5-(4-trifluoromethyl-phenyl)-pyrazolo[1,5-a]pyrimidin-3-ylethynyl]-benzamide] | 260 |
| Cc1cc(-c2ccc(Cl)cc2)cn2c(C#Cc3ccc(N)nc3)cnc12 [Example 210, 5-[6-(4-Chloro-phenyl)-8-methyl-imidazo[1,2-a]pyridin-3-ylethynyl]-pyridin-2-ylamine] | 231 to 234 |
| NS(=O)(=O)c1ccc(C#Cc2cnn3c(C(F)(F)F)cc(-c4ccc(Cl)cc4)nc23)s1 [Example 97, 5-[5-(4-Chloro-phenyl)-7-trifluoromethyl-pyrazolo[1,5-a]pyrimidin-3-ylethynyl]-thiophene-2-sulfonic acid amide] | 239 to 240 |
| O=S(=O)(NCCc1ccncc1)c1ccc(C#Cc2cnn3c(C4CC4)cc(-c4ccc(Cl)cc4)nc23)s1 [Example 318, 5-[5-(4-Chloro-phenyl)-7-cyclopropyl-pyrazolo[1,5-a]pyrimidin-3-ylethynyl]-thiophene-2-sulfonic acid (2-pyridin-4-yl-ethyl)-amide] | 172 to 174 |
| O=S(=O)(c1ccc(C#Cc2cnn3c(C(F)(F)F)cc(-c4cccc(C(F)(F)F)c4)nc23)s1)N(CCO)CCO [Example 266, 5-[7-Trifluoromethyl-5-(3-trifluoromethyl-phenyl)-pyrazolo[1,5-a]pyrimidin-3-ylethynyl]-thiophene-2-sulfonic acid bis-(2-hydroxy-ethyl)-amide] | 129 |
| NS(=O)(=O)c1ccc(C#Cc2cnn3c(C4CC4)cc(-c4ccc(C(F)(F)F)cc4)nc23)s1 [Example 83, 5-[7-Cyclopropyl-5-(4-trifluoromethyl-phenyl)-pyrazolo[1,5-a]pyrimidin-3-ylethynyl]-thiophene-2-sulfonic acid amide] | 231 to 233 |
| NS(=O)(=O)c1ccc(C#Cc2cnn3c(C(F)F)cc(-c4cccc(C(F)(F)F)c4)nc23)cc1 [Example 176, 4-[7-Difluoromethyl-5-(3-trifluoromethyl-phenyl)-pyrazolo[1,5-a]pyrimidin-3-ylethynyl]-benzenesulfonamide] | 245 |
| CS(=O)(=O)c1cccc(C#Cc2cnn3c(C(F)(F)F)cc(-c4ccc(C(F)(F)F)cc4)nc23)c1 [Example 40, 3-(3-Methanesulfonyl-phenylethynyl)-7-trifluoromethyl-5-(4-trifluoromethyl-phenyl)-pyrazolo[1,5-a]pyrimidine] | 214 |
| CCOc1cc(-c2cc(C(F)(F)F)n3ncc(C#Cc4cccc(S(=O)(=O)NC(C)(C)CO)c4)c3n2)ccc1C(F)(F)F [Example 41, 3-[5-(3-Ethoxy-4-trifluoromethyl-phenyl)-7-trifluoromethyl-pyrazolo[1,5-a]pyrimidin-3-ylethynyl]-N-(2-hydroxy-1,1-dimethyl-ethyl)-benzenesulfonamide] | 209 to 211 |
| CC(C)(C)NS(=O)(=O)c1ccc(C#Cc2cnn3c(C(F)(F)F)cc(-c4ccc(C(F)(F)F)cc4)nc23)s1 [Example 109, 5-[7-Trifluoromethyl-5-(4-trifluoromethyl-phenyl)-pyrazolo[1,5-a]pyrimidin-3-ylethynyl]-thiophene-2-sulfonic acid tert-butylamide] | 226 |
| FC(F)(F)c1ccc(-c2cc(C(F)(F)F)n3ncc(C#Cc4cccnc4)c3n2)cc1 [Example 3, 3-Pyridin-3-ylethynyl-7-trifluoromethyl-5-(4-trifluoromethyl-phenyl)-pyrazolo[1,5-a]pyrimidine] | 187 to 188 |
